Experimental data reported in patent US20080207617A1, “Quinoline Derivatives and Quinazoline Derivatives Inhibiting Autophosphrylation of Flt3 and Medicinal Compositions Containing the Same” (KIRIN BEER KABUSHIKI KAISHA, priority 2002, published 2008).
pIC50: −log10 of the molar value. Counter-ions that a name gives are not always drawn. Like-named read-outs stand apart in the source and are kept apart here.

Key:
MOLM13 [1] = experiment: Tumor growth inhibitory activities in nude mice xenograft model inoculated with human leukemia cells MOLM13; format: in vivo; details: Mus musculus, MOLM-13, po, 50 mg/kg orally once a day, read-out: TGIR (%) (measurement date)
Description: Pharmacological Test Example 5
Tumor Growth Inhibitory Activities in Nude Mice Xenograft Model Inoculated with Human Leukemia Cells
Human leukemia cells MOLM13 (subdivided from Hayashibara Biochemical Laboratories, Inc.) were subcutaneously transplanted into nude mice. […] The test compound suspended or dissolved in 0.5% methylcellulose was orally administered at a dose of 0.1 ml per 10 g body weight once a day for 9 days. For the control group, only vehicle was administered.
The tumor growth inhibition rate (TGIR) was calculated as follows:
The tumor growth inhibition rate (TGIR)=(1−TX/CX)×100
wherein CX represents the volume of tumor at day X for the control group when the tumor volume at the day of the start of the administration (day 1) was presumed to be 1; and TX represents the volume of tumor at day X for test compound administration groups.

MOLM13 [2] = experiment: Cell growth inhibitory activity using MTT method (MOLM13); format: cell-based, human; details: Homo sapiens, MOLM-13, 72 h, MOLM13 cells
Description: Pharmacological Test Example 3
Measurement of Cell Growth Inhibitory Activity Using MTT Method
Human leukemia cell line MOLM13 (subdivided from Hayashibara Biochemical Laboratories, Inc.) was cultured in an RPMI medium containing 10% fetal calf serum (purchased from Asahi Techno Glass Corporation) within a 5% carbon dioxide incubator until the cell density reached 50 to 90% of the maximum cell density. These cells were seeded into wells, containing an RPMI medium containing 10% fetal calf serum, in a 96-well flat bottom plate in an amount of […] per well. The amount of the solution of the medium in each well was brought to 100 μl, and a test compound was added thereto to 500 ng, 100 ng, 20 ng, and 4 ng per ml. After culture within an incubator for 72 hr, 10 μl of a 5 mg/ml MTT (3-(4,5-dimethylthiazol-2-yl)-2,5-diphenyl tetrazolium bromide) solution (purchased from SIGMA) was added to the medium, and a reaction was allowed to proceed for 4 hr. Thereafter, 100 μl of a 0.04 N hydrochloric acid-isopropanol solution was added to completely dissolve the resultant MTT formazan crystal. After the dissolution, absorbance at 550 nm was measured using 620 nm as a reference wavelength with a microplate reader (DIGISCAN) (It is regarded that, in the MTT method, the viable cell count is reflected, and linearity is observed in a cell count per well range of 5×10^5 to 2×10^2 cells). After 72 hr, the absorbance of only the medium free from cells was subtracted from the absorbance of the well without the addition of the test compound to determine a value which was presumed to be 100%. On the other hand, the absorbance with the addition of the compound was expressed in terms of % growth.

MOLM13 [3] = experiment: Cell growth inhibitory activities on cultured human leukemia cells MOLM-13 (WST-1); format: cell-based; details: Homo sapiens, MOLM-13, 72 h, 3 days culture
MV4-11 = experiment: Cell growth inhibitory test MV4-11 (WST-1); format: cell-based, human; details: Homo sapiens, MV4-11, 72 h, MV4-11 cells, 3 days culture
Method in brief: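 MV4-11 leukemia cells (3×10^3/well, DMEM + 10% FCS) were cultured 3 days with compound in DMSO at 5% CO2. Growth read by WST-1 absorbance at 450 nm (ref 650 nm), normalized to untreated (100%) and cell-free (0%) wells; IC50 from multiple concentrations.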

FLT3 = target: T1, FLT3 (Homo sapiens, UniProt P36888); experiment: Inhibitory activity against FLT3 autophosphorylation using ELISA method; format: cell-based; details: MV4-11 cells, 1 hr with compound, read-out: IC50 of FLT3-phosphorylation
T1 sequence (P36888 with tags, fused parts or gaps INS600HVDFREYEYD): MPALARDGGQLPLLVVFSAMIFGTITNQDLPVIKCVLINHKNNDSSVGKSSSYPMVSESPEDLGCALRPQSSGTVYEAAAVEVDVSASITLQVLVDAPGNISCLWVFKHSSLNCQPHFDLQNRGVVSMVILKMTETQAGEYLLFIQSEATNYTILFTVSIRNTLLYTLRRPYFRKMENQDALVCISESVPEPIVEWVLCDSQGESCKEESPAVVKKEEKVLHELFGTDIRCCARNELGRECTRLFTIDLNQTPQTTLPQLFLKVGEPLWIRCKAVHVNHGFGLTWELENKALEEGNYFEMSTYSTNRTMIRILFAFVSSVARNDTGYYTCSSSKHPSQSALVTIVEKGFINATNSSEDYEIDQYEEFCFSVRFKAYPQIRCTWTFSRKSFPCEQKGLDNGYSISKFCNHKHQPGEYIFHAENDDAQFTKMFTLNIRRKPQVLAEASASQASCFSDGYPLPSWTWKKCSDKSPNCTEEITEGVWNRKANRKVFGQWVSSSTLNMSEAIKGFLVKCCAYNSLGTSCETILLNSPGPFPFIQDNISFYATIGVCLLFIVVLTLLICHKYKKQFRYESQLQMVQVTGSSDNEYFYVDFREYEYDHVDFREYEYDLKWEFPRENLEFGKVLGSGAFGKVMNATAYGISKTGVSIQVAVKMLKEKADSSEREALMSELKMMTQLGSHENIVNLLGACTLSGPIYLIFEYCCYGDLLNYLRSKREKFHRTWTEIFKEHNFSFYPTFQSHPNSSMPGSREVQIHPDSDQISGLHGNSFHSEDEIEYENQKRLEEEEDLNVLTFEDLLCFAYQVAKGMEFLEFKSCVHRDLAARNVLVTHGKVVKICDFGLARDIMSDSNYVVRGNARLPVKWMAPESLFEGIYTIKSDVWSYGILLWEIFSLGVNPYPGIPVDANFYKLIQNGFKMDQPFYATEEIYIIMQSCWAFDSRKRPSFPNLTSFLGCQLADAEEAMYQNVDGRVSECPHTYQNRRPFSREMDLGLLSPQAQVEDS
Description: Pharmacological Test Example 1
Measurement of Inhibitory Activity Against FLT3 Autophosphorylation Using ELISA Method
Human leukemia cells MV4-11 (ATCC number: CRL-9591) were cultured in an IMDM medium containing 10% fetal calf serum (purchased from SIGMA) within a 5% carbon dioxide incubator until 50 to 90% confluent. The harvested cells were seeded into 96-wells, plates, containing an IMDM medium containing 0.1% fetal calf serum, in a 96-well multiscreen plate in an amount of 5.0×10^5 per well, a solution of the test compound in dimethyl sulfoxide was added to each well, and the cultivation was continued at 37° C. for one hr. The medium was removed, followed by washing with phosphate buffered saline. A lysis buffer (60 μl) (20 mM HEPES (pH 7.4), 150 mM NaCl, 0.2% Triton X-100, 10% glycerol, 5 mM sodium orthovanadylate, 5 mM disodium ethylenediaminetetraacetate, and 2 mM Na4P2O7) was then added thereto. The mixture was shaken at 4° C. for 2 hr to prepare a cell extracts.
Separately, phosphate buffered saline (50 μl, pH 7.4) containing 5 μg/ml of anti-phospho-tyrosine antibody (PY20; purchased from Transduction Laboratories) was added to a 96-well microplate for ELISA (Maxisorp; purchased from NUNC), followed by standing at 4° C. overnight to form a solid phase on the wells. After washing of the plate, 250 μl of a blocking solution was added, followed by standing at room temperature for 3 hr to perform blocking. After washing, the whole quantity of the cell extract was transferred to the wells, and the plate was then allowed to stand at 4° C. overnight. After washing, an anti-FLT3 antibody (Flt3/Flk2 (C-20), purchased from Santa Cruz Biotechnology) was allowed to react at room temperature for 2 hr, and, after washing, a peroxidase-labeled anti-rabbit Ig antibody (purchased from Amersham) was allowed to react at room temperature for one hr. After washing, a chromophoric substrate for peroxidase (purchased from Sumitomo Bakelite Co., Ltd.) was added thereto to initiate a reaction. After a suitable level of color development, a reaction termination solution was added to stop the reaction, and the absorbance at 450 nm was measured with a microplate reader. The FLT3-phosphorylation activity for each well was determined by presuming the absorbance without the addition of the medicament to be 100% FLT3-phosphorylation activity and the absorbance with the addition of a large excess of a positive control (Compound 1, 10 μM) to be 0% FLT3-phosphorylation activity. The concentration of the test compound was varied on several levels, the FLT3-phosphorylation inhibitory activity was determined for each case, and the concentration of the test compound necessary for inhibiting 50% of FLT3-phosphorylation (IC50) was calculated.

SMILES	pIC50 (MOLM13 [2])	IC50 (MOLM13 [3]) [nM]	pIC50 (MV4-11)	pIC50 (FLT3)	inhibition in vivo at 50 mg/kg (MOLM13 [1]; 240 h, day 10) [%]	inhibition in vivo at 50 mg/kg (MOLM13 [1]; 216 h, day 9) [%]
COc1cc2nccc(Oc3ccc(NC(=O)NC4CC(C)CC(C)(C)C4)cc3Cl)c2cc1OC (stereo not drawn) [Compound 13, 1-[3-Chloro-4-(6,7-dimethoxy-quinolin-4-yloxy)-phenyl]-3-(3,3,5-trimethyl-cyclohexyl)-urea]	8.41	21	7.74		84.8	
COc1cc2nccc(Oc3ccc(NC(=O)NC4CCCC(C)(C)C4)cc3Cl)c2cc1OC (stereo not drawn) [Compound 12, 1-[3-Chloro-4-(6,7-dimethoxy-quinolin-4-yloxy)-phenyl]-3-(3,3-dimethyl-cyclohexyl)-urea]	8.27	6	8.30		93.7	
COc1cc2nccc(Oc3ccc(NC(=O)NC4CC(C)CC(C)(C)C4)cc3F)c2cc1OC (stereo not drawn) [Compound 15, 1-[4-(6,7-Dimethoxy-quinolin-4-yloxy)-3-fluoro-phenyl]-3-(3,3,5-trimethyl-cyclohexyl)-urea]	8.02	22	7.96		89.4	
COc1cc2c(Oc3ccc(NC(=O)NCCC(C)(C)C)cc3Cl)ccnc2cc1OCCCN1CCN(C)CC1 [Compound 77, 1-(3,3-Dimethyl-butyl)-3-(3-chloro-4-{6-methoxy-7-[3-(4-methyl-piperazin-1-yl)-propoxy]-quinolin-4-yloxy}-phenyl)-urea]						70.4
COc1cc2c(Oc3ccc(NC(=O)NCCC(C)(C)C)c(F)c3)ccnc2cc1OCCCN1CCN(C)CC1 [Compound 76, 1-(3,3-Dimethyl-butyl)-3-(2-fluoro-4-{6-methoxy-7-[3-(4-methyl-piperazin-1-yl)-propoxy]-quinolin-4-yloxy}-phenyl)-urea]						34.3

Further lines, with some results ahead:

pIC50 (MOLM13 [2])	IC50 (MOLM13 [3]) [nM]	pIC50 (MV4-11)	pIC50 (FLT3)	SMILES	inhibition in vivo at 50 mg/kg (MOLM13 [1]; 240 h, day 10) [%]	inhibition in vivo at 50 mg/kg (MOLM13 [1]; 216 h, day 9) [%]
	< 1	> 9.00		COc1cc2c(Oc3ccc(NC(=O)NCCC(C)(C)C)cc3)ccnc2cc1OCCCN1CCN(C)CC1 [Compound 75, 1-(3,3-Dimethyl-butyl)-3-(4-{6-methoxy-7-[3-(4-methyl-piperazin-1-yl)-propoxy]-quinolin-4-yloxy}-phenyl)-urea hydrochloride]		94.1
8.29	3	8.70		COc1cc2nccc(Oc3ccc(NC(=O)NC4CCCC(C)(C)C4)cc3F)c2cc1OC (stereo not drawn) [Compound 14, 1-[4-(6,7-Dimethoxy-quinolin-4-yloxy)-3-fluoro-phenyl]-3-(3,3-dimethyl-cyclohexyl)-urea]	96.1	
	2	9.00	7.03	COc1cc2c(Oc3ccc(NC(=O)NCCC(C)(C)C)cc3)ccnc2cc1OCCN1CCCCC1 [Compound 40, 1-{4-[6-Methoxy-7-(2-piperidin-1-yl-ethoxy)-quinolin-4-yloxy]-phenyl}-3-(3,3-dimethyl-butyl)-urea hydrochloride]		
	3	8.70	8.15	COc1cc2nccc(Oc3ccc(NC(=O)NCCC(C)(C)C)cc3C)c2cc1OC [Compound 3, 1-[4-(6,7-Dimethoxy-quinolin-4-yloxy)-3-methyl-phenyl]-3-(3,3-dimethyl-butyl)-urea]		
